Results from patent US11565996B2, “Compounds for use as inhibitors of alternative oxidase or cytochrome bc1 complex” (AlternOx Scientific Limited, priority 2012, dated 2023).
Several values for one entry are separate records, joined by “and”; a condition that tells them apart may be missing. Identical values can stand only once. Like-named read-outs stand apart in the source and are kept apart here.

Key:
[1] = system: Qo and Qi binding-sites of cytochrome bc1 complex; assay: Titration using mitochondria in which the alternative oxidase is absent: bc1 binding sites inhibited; type: biochemical; details: mitochondria without AOX
Text: (§1) Following on from this work, the inventors set out to test whether or not these compounds also have any effect on the respiratory activity of cytochrome bc1 complex.

other quinol oxidases = assay: Specificity versus other quinol oxidases; type: biochemical; details: specific for membrane-bound and purified AOX
cytochrome bc1 complex [2] = target: cytochrome bc1 complex (Solanum tuberosum (Potato), UniProt P29757); assay: Respiratory activity of potato mitochondria lacking AOX (cytochrome bc1 complex), oxygen electrode; type: biochemical; details: 0.3 mg potato mitochondria respiring on 1 mM NADH, 25° C., 1 μM CCCP
Method: as §1
(§2) Respiratory activity was measured in a medium containing 0.3M mannitol, 10 mM KCl, 5 mM MgCl2, 1 mM potassium phosphate and 10 mM MOPS (3-(N-morpholino)propanesulfonic acid) buffer pH7.4. Either 0.9 mg of rat liver mitochondria respiring on 5 mM succinate or 0.3 mg potato mitochondria respiring on 1 mM NADH were used. Respiration was measured using a Rank oxygen electrode of 0.4 ml volume at 25° C. in the presence of 1 μM CCCP (Carbonyl cyanide […]). The results were compared with ascochlorin (a known bc1 inhibitor) and azoxystrobin (a commercial fungicide targeted at the bc1 complex).
(§3) Tables 3 and 4 summarise the concentration of inhibitor that was required to reduce the respiration of cytochrome bc1 complex (in the absence of AOX) by 50%. […] The lower the IC50 value the better, since it means that a lower amount of the compound is needed to halve the respiratory activity.

cytochrome bc1 complex [3] = target: cytochrome bc1 complex (Rattus norvegicus (Rat), UniProt P00159); assay: Respiratory activity of rat liver mitochondria lacking AOX (cytochrome bc1 complex), oxygen electrode; type: biochemical; details: 0.9 mg rat liver mitochondria respiring on 5 mM succinate; 25° C.; 1 μM CCCP
Method: as §1, §2, §3

recombinant AOX protein = recombinant AOX protein (Trypanosoma brucei brucei, UniProt Q26710); assay: biochemical; details: purified recombinant AOX protein; oxygen consumption; 1 mM NADH as substrate
Method: Table 1 summarises the concentration of inhibitor required to reduce the respiration of purified recombinant AOX protein by 50%. Respiration was measured as the rate of oxygen consumption in the presence of 1 mM NADH as substrate and the numbers represent the final I50 concentration of the inhibitor.

[4] = read-out: IC50 (Potato mitochondria)

Row | SMILES | IC50 (cytochrome bc1 complex [2]; [4]) | IC50 (cytochrome bc1 complex [3]) | IC50 (cytochrome bc1 complex [2]; IC50 (Potato mitochondria)) | further results
1 | CC(C)=CCC/C(C)=C/Cc1c(O)c(Cl)c(C)c(C=O)c1O [Colletochlorin B] | 750 nM |  |  | cytochrome bc1 complex binding sites inhibited [1]: both the Qo and Qi binding-sites; inhibition of other quinol oxidases (other quinol oxidases): did not appear to inhibit other quinol oxidases
2 | CC(/C=C/[C@@]1(C)[C@H](C)CCC(=O)[C@@H]1C)=C\Cc1c(O)c(Cl)c(C)c(C=O)c1O [Ascochlorin, ascochlorin] |  | 187 nM | 500 nM | 
3 | CO/C=C(/C(=O)OC)c1ccccc1Oc1cc(Oc2ccccc2C#N)ncn1 [Azoxystrobin, azoxystrobin] | ~1400 nM and 1400 nM | ~525 nM and 525 nM |  | 
4 | C/C(=C\Cc1c(O)c(Cl)c(C)c(C=O)c1O)CC/C=C(\C)[C@@H]1CC(=O)C(C)(C)O1 [Ascofuranone] |  |  | ~30000 nM and 30000 nM | 
5 | CCCCCCCCOC(=O)c1cc(O)c(O)c(O)c1 [Octyl Gallate] |  |  |  | IC50 (recombinant AOX protein): 105 nM
